Test results reported in ChEMBL document CHEMBL3797185, “Exploring the 2- and 5-positions of the pyrazolo[4,3-d]pyrimidin-7-amino scaffold to target human A1 and A2A adenosine receptors” (Bioorg Med Chem, 2016).

What was measured:
Adenosine receptor A2a [1] = target: T1, Adenosine receptor A2a (Homo sapiens, UniProt P29274); test: Displacement of [3H]-ZM241385 from human adenosine A2A receptor expressed in CHO cell membranes after 60 mins by scintillation counting method
Adenosine receptor A1 [2] = target: T2, Adenosine receptor A1 (Homo sapiens, UniProt P30542); test: Displacement of [3H]-DPCPX from human adenosine A1 receptor expressed in CHO cell membranes after 120 mins by scintillation counting method
T2 sequence (P30542 whole entry): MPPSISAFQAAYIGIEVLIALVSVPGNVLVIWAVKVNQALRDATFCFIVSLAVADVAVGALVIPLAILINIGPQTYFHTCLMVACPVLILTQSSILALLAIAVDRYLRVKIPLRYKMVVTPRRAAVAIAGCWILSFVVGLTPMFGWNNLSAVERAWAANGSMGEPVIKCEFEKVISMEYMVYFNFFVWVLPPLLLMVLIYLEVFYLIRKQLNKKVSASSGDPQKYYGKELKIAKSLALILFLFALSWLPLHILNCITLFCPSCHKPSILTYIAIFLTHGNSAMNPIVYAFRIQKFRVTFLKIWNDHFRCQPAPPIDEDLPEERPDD

Adenosine receptor A2b = target: T3, Adenosine receptor A2b (Homo sapiens, UniProt P29275); test: Antagonist activity at human adenosine A2B receptor expressed in CHO cell membranes assessed as inhibition of NECA-stimulated cAMP level preincubated for 10 mins followed by NECA stimulation by scintillation counting method in presence of [3H]-cyclic AMP; format: functional
T3 sequence (P29275 whole entry): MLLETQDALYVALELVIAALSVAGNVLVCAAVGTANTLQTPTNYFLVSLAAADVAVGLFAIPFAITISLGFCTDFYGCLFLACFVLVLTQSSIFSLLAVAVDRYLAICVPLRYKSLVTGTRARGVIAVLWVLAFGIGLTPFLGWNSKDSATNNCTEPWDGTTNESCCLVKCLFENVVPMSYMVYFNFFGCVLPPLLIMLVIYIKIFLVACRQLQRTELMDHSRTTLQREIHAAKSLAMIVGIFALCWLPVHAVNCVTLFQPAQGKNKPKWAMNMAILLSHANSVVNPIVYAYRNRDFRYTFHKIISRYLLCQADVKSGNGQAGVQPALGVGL

Adenosine receptor A3 = target: T4, Adenosine receptor A3 (Homo sapiens, UniProt P0DMS8); test: Displacement of [125I]-AB-MECA from human adenosine A3 receptor expressed in CHO cell membranes after 60 mins by scintillation counting method
T4 sequence (P0DMS8 whole entry): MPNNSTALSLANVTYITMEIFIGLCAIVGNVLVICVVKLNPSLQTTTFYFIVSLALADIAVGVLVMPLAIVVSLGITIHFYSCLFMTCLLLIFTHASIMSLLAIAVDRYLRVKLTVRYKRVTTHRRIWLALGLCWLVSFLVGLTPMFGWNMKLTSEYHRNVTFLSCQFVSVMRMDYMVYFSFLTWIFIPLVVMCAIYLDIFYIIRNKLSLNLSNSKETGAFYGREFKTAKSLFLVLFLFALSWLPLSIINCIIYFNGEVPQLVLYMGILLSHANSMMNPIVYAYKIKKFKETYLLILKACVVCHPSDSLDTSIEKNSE

Homo sapiens = species on record: Homo sapiens; test: Selectivity ratio of Ki for human adenosine A1 receptor to Ki for human adenosine A2A receptor
[3] = target: T5, Adenosine receptor A2b (Homo sapiens) (UniProt P29275); test: Antagonist activity at human adenosine A2B receptor expressed in CHO cell membranes assessed as inhibition of NECA-stimulated cAMP level at 1 uM preincubated for 10 mins followed by NECA stimulation by scintillation counting method in presence of [3H]-cyclic AMP; format: functional
T5 sequence (whole entry): T3 sequence (P29275 whole entry)

[4] = target: T6, Adenosine receptor A3 (Homo sapiens) (UniProt P0DMS8); test: Displacement of [125I]-AB-MECA from human adenosine A3 receptor expressed in CHO cell membranes at 1 uM after 60 mins by scintillation counting method relative to control
T6 sequence (whole entry): T4 sequence (P0DMS8 whole entry)

[5] = target: T7, Adenosine receptor A1 (Homo sapiens) (UniProt P30542); test: Displacement of [3H]-DPCPX from human adenosine A1 receptor expressed in CHO cell membranes at 1 uM after 120 mins by scintillation counting method relative to control
T7 sequence (whole entry): T2 sequence (P30542 whole entry)

Adenosine receptor A2a [6] = target: T1, Adenosine receptor A2a; test: Antagonist activity at human adenosine A2A receptor expressed in CHO cell membranes assessed as inhibition of NECA-stimulated cAMP level preincubated for 10 mins followed by NECA stimulation by scintillation counting method in presence of [3H]-cyclic AMP; format: functional
Adenosine receptor A1 [7] = target: T2, Adenosine receptor A1; test: Antagonist activity at human adenosine A1 receptor expressed in CHO cell membranes assessed as suppression of CCPA-mediated inhibition of cAMP level by scintillation counting method in presence of [3H]-cyclic AMP; format: functional
Adenosine receptor A2a [8] = target: T1, Adenosine receptor A2a; test: Displacement of [3H]-ZM241385 from human adenosine A2A receptor expressed in CHO cell membranes at 1 uM after 60 mins by scintillation counting method relative to control

T1 sequence (P29274 whole entry): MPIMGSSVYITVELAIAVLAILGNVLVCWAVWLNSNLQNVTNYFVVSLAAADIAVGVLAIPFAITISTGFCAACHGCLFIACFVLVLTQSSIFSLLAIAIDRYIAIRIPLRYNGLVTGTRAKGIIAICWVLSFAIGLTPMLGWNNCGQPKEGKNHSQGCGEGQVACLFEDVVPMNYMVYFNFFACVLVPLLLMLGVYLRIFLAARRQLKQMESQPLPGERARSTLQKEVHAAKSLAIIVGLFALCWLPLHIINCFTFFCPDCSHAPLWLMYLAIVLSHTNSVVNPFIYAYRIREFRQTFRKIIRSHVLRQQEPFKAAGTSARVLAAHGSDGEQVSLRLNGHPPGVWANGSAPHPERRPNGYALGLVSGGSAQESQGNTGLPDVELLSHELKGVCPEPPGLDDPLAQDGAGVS

Row | Compound | Ki (Adenosine receptor A2a [1]) [nM] | Ki (Adenosine receptor A1 [2]) [nM] | IC50 (Adenosine receptor A2b) [nM] | Ki (Adenosine receptor A3) [nM] | Ratio Ki (Homo sapiens) | inhibition [3] [%] | inhibition [4] [%] | inhibition [5] [%] | IC50 (Adenosine receptor A2a [6]) [nM] | IC50 (Adenosine receptor A1 [7]) [nM] | inhibition (Adenosine receptor A2a [8]) [%]
1 | Nc1nc(-c2cccs2)nc2cn(-c3ccccc3O)nc12 | 412 | 159 |  | 209 |  | 28 |  |  |  |  | 
2 | Nc1nc(-c2ccco2)nc2cn(-c3ccccc3)nc12 | 195 | 206 |  |  |  | 1 | 39 |  |  |  | 
3 | Nc1nc(-c2ccco2)nc2cn(Cc3ccccc3)nc12 | 320 |  |  |  |  | 37 | 2 | 32 |  |  | 
4 | Nc1nc(Cc2ccccc2)nc2cn(Cc3ccccc3)nc12 |  |  |  |  |  | 1 | 15 | 1 |  |  | 1
5 | COc1ccccc1-n1cc2nc(CCCc3ccccc3)nc(N)c2n1 | 647 | 49 |  |  |  | 21 | 6 |  |  |  | 
6 | Nc1nc(CCCc2ccccc2)nc2cn(-c3ccccc3O)nc12 | 240 | 17 |  |  |  | 5 | 5 |  |  |  | 
7 | COc1ccccc1-n1cc2nc(Cc3ccccc3)nc(N)c2n1 |  | 103 |  | 405 |  | 1 |  |  |  |  | 34
8 | Nc1nc(-c2ccco2)nc2cn(Cc3ccccc3O)nc12 | 17 | 242 | 112 | 905 | 3 |  |  |  |  |  | 
9 | Cc1nc(N)c2nn(CCc3ccccc3)cc2n1 |  |  |  |  |  | 3 | 3 | 10 |  |  | 12
10 | Cc1nc(N)c2nn(Cc3ccccc3)cc2n1 |  |  |  |  |  | 1 | 1 | 1 |  |  | 1
11 | Nc1nc(Cc2ccccc2)nc2cn(-c3ccccc3O)nc12 |  | 52 |  |  |  | 1 | 19 |  |  |  | 21
12 | Nc1nc(-c2ccco2)nc2cn(-c3ccccc3O)nc12 | 89 | 372 |  |  |  | 42 | 36 |  |  |  | 
13 | COc1ccccc1-n1cc2nc(-c3cccs3)nc(N)c2n1 |  |  |  | 150 |  | 1 |  | 24 |  |  | 27
14 | Nc1nc(-c2ccco2)nc2cn(CCc3ccccc3)nc12 |  |  |  |  |  | 3 | 4 | 12 |  |  | 33
15 | COc1ccccc1Cn1cc2nc(-c3ccco3)nc(N)c2n1 | 5.37 | 98 | 512 | 196 | 3 |  |  |  | 6.21 | 106 | 
16 | COc1ccccc1-n1cc2nc(-c3ccco3)nc(N)c2n1 | 362 |  |  |  |  | 12 | 37 | 31 |  |  | 
17 | Cn1cc2nc(CCCc3ccccc3)nc(N)c2n1 |  |  |  |  |  | 2 | 30 | 36 |  |  | 1
18 | Cn1cc2nc(Cc3ccccc3)nc(N)c2n1 |  |  |  |  |  | 20 | 1 | 9 |  |  | 1
19 | Nc1nc(CCCc2ccccc2)nc2cn(-c3ccccc3F)nc12 |  |  |  | 163 |  | 1 |  | 25 |  |  | 43
20 | Cc1nc(N)c2nn(-c3ccccc3F)cc2n1 |  | 410 |  |  |  | 8 | 8 |  |  |  | 23

Other lines, results leading:

Row | Ki (Adenosine receptor A2a [1]) [nM] | Ki (Adenosine receptor A1 [2]) [nM] | IC50 (Adenosine receptor A2b) [nM] | Ki (Adenosine receptor A3) [nM] | Ratio Ki (Homo sapiens) | inhibition [3] [%] | inhibition [4] [%] | inhibition [5] [%] | IC50 (Adenosine receptor A2a [6]) [nM] | IC50 (Adenosine receptor A1 [7]) [nM] | inhibition (Adenosine receptor A2a [8]) [%] | Compound
21 | 38 | 111 | 395 | 122 | 3 |  |  |  |  |  |  | Cc1ccc(-c2nc(N)c3nn(Cc4ccccc4O)cc3n2)o1
22 | 9.23 | 136 |  | 269 | 15 | 20 |  |  | 10.9 | 152 |  | Cc1ccc(-c2nc(N)c3nn(Cc4ccccc4)cc3n2)o1
23 | 14 | 65 | 633 | 225 | 3 |  |  |  |  |  |  | Cc1ccc(-c2nc(N)c3nn(Cc4cccc(O)c4)cc3n2)o1
24 | 6.21 | 60 | 152 | 71 | 3 |  |  |  |  |  |  | Cc1ccc(-c2nc(N)c3nn(Cc4ccccc4Cl)cc3n2)o1
25 | 57 | 309 | 354 | 498 | 3 |  |  |  |  |  |  | Cc1ccc(-c2nc(N)c3nn(Cc4ccccc4F)cc3n2)o1
26 | 147 |  |  | 375 |  | 1 |  | 1 |  |  |  | Cc1ccc(-c2nc(N)c3nn(-c4ccccc4O)cc3n2)o1
27 | 5.26 | 120 | 293 | 88 | 22 |  |  |  | 6.42 | 134 |  | COc1cccc(Cn2cc3nc(-c4ccc(C)o4)nc(N)c3n2)c1
28 | 99 | 42 |  | 147 |  | 32 |  |  |  |  |  | Cc1ccc(-c2nc(N)c3nn(-c4ccccc4)cc3n2)o1
29 | 3.62 | 18 |  | 82 | 3 | 30 |  |  | 4.35 | 21 |  | COc1ccccc1Cn1cc2nc(-c3ccc(C)o3)nc(N)c2n1
30 | 518 |  |  | 297 |  | 1 |  | 1 |  |  |  | COc1ccccc1-n1cc2nc(-c3ccc(C)o3)nc(N)c2n1
31 | 51 | 252 | 421 | 427 | 3 |  |  |  |  |  |  | Cc1ccc(-c2nc(N)c3nn(Cc4cccc(F)c4)cc3n2)o1
